Test system: Pseudomonas aeruginosa
Assay: burn wound infection treated with Nu-3 applied with glycerol polysiloxanes
Format: in vivo
Details: burn wound infections
Source text: A particularly important medical treatment application is the healing effect of some of the hydrophilic substituted polydialkoxysiloxanes on radiation burn injuries. Skin irritation and burning is common in cases where patients undergo radiation treatment associated with certain cancers. Topical application of glycerol substituted polydialkoxysilane compositions relieves pain and accelerates healing compared to treatment with commonly used burn or cortisone ointments. […] Nubiotics are a new class of antibiotic agents with broad spectrum activity.

`CCCCOP(=O)(O)OC[C@H]1O[C@@H](n2cc(C)c(=O)[nH]c2=O)C[C@@H]1OP(=O)(O)O` [Nu-3, butyl-phosphate-5′-thymidine-3′-phosphate] was tested, and the “antibacterial effectiveness of Nu-3 when applied with glycerol polysiloxanes” value was “only a slight decrease in antibacterial effectiveness”.

Source: patent US8552135B2, “Substituted polyalkoxysiloxane compositions and methods of use” (One Unlimited, Inc., priority 2006, dated 2013)
